In article PMC1525162 (BMC Pharmacology, 2006):
“Also recorded” adds a separate entry of the source. Blank lines part the entries; values can stand above or below the molecule they belong to. Bridge positions count the residues as written; N and C are the ends. Ends that are not written are not given here. Peptide text beside a SMILES is read from it.

Tests used:
[1] = system: endogenous CGRP receptor expressed on SK-N-MC human neuroblastoma cells; conditions: cited from earlier work
Excerpt: (§1) Consequently, it is reasonable to assume that interactions of CGRP-F37 with the mature CLR-RAMP1 heterodimer would necessitate a more complex relationship in order to account for the high affinity binding associated with ...

CGRP receptor = conditions: displaced by CGRP and CGRP(8–37); cited from earlier work
Excerpt: as §1

[2] = biological target: T1, wild type CLR-RAMP1 heterodimer (HEK293T-RAMP1 membranes) (Homo sapiens, UniProt O60894+Q16602); test: Competition radioligand binding, wild type CLR; conditions: compared to Ki of CGRP
Description: (§2) A crude cell membrane preparation was prepared as previously described. Briefly, HEK293T-RAMP1 membranes were prepared by scraping and transferring cells to a 50 mL conical tube using cold HBSS followed with two washings by centrifugation at 1000 × g using cold HBSS. The intact cell pellet was resuspended in 10 mL of 0.25 M sucrose containing a protease inhibitor cocktail consisting of 10μg/mL benzamidine, 10μg/mL leupeptin, and 20μg/mL phenylmethysulfonylfluoride. The cells were disrupted by freezing followed by Dounce homogenization of the thawed suspension using 20 strokes from a loose fitting (B) pestle. This mixture was then centrifuged at 1260 × g for 5 min at 4°C. Buffer A (20 mM HEPES, pH 7.5, 1.4 mM EGTA, 12.5 mM MgCl2, 10μg/mL benzamidine, 10μg/mL leupeptin, and 20μg/mL phenylmethysulfonylfluoride) was added to the supernatant and centrifuged again at 30,000 × g for 15 min at 4°C. The resultant pellet was kept, resuspended in buffer A then centrifuged once more at 30,000 × g for 15 min at 4°C. […] Protein concentrations were measured using the method of Bradford.
(§3) The radioligand binding protocol used for this study was performed as previously described. […] Amounts of total and non-specific radiolabel bound to cell membranes were calculated from radioactive counts remaining on the glass fiber filters.

[3] = system: L24A, L34A and L24A,L34A CLR-RAMP1 heterodimers versus wild type; test: Competition/saturation binding, leucine mutant CLRs compared with wild type; design: species or system human; conditions: for affinity at leucine mutants compared with wild type: L34A, L24A,L34A vs wild type CLR
Description: A crude cell membrane preparation was prepared as previously described. Briefly, HEK293T-RAMP1 membranes were prepared by scraping and transferring cells to a 50 mL conical tube using cold HBSS followed with two washings by centrifugation at 1000 × g using cold HBSS. The intact cell pellet was resuspended in 10 mL of 0.25 M sucrose containing a protease inhibitor cocktail consisting of 10μg/mL benzamidine, 10μg/mL leupeptin, and 20μg/mL phenylmethysulfonylfluoride. The cells were disrupted by freezing followed by Dounce homogenization of the thawed suspension using 20 strokes from a loose fitting (B) pestle. This mixture was then centrifuged at 1260 × g for 5 min at 4°C. Buffer A (20 mM HEPES, pH 7.5, 1.4 mM EGTA, 12.5 mM MgCl2, 10μg/mL benzamidine, 10μg/mL leupeptin, and 20μg/mL phenylmethysulfonylfluoride) was added to the supernatant and centrifuged again at 30,000 × g for 15 min at 4°C. The resultant pellet was kept, resuspended in buffer A then centrifuged once more at 30,000 × g for 15 min at 4°C. The final crude membrane pellet was resuspended in buffer A containing 10% glycerol and stored in aliquots at -70°C until used for radioligand binding. Protein concentrations were measured using the method of Bradford.
The radioligand binding protocol used for this study was performed as previously described. […] Binding was stopped by filtering the membranes though Whatman GF/C glass fiber filters, followed by 5 – 5 mL washes with cold buffer B (20 mM HEPES, pH 7.5, 1.4 mM EGTA, 12.5 mM MgCl2) to remove any unbound drug. Amounts of total and non-specific radiolabel bound to cell membranes were calculated from radioactive counts remaining on the glass fiber filters.

[4] = biological target: wild type CLR-RAMP1 (transiently transfected HEK293T-RAMP1 cells) (Homo sapiens, UniProt O60894+Q16602); test: cAMP generation, wild type CLR; format: cell-based
[5] = system: wild type and L24A, L34A, L24A,L34A CLR-RAMP1 (HEK293T-RAMP1 cells); test: cAMP generation, wild type and leucine mutant CLRs compared; conditions: L24A, L34A, L24A,L34A vs wild type CLR
[6] = system: endogenous CGRP receptors on acutely isolated pancreatic acinar cells; design: method as in PMID 7689110; conditions: cited from earlier work
[7] = system: HEK293T-RAMP1 membranes without CLR; test: Radioligand binding, non-transfected or empty-vector HEK293T-RAMP1 membranes; conditions: increasing radioligand concentrations, data not shown
Description: as §2, §3

[8] = biological target: CGRP receptors endogenously expressed in rat brain and peripheral tissues; design: method as in Van Rossum et al., 1994; conditions: previously published equilibrium dissociation constant; ref Van Rossum et al., 1994; read-out: Reported Wild Type, Kd of radioligand; cited from earlier work
[9] = biological target: T1, wild type CLR-RAMP1 heterodimer (HEK293T-RAMP1 membranes); test: Saturation binding of [^125I-Tyr]CGRP(8–37), wild type CLR; conditions: per mg wild type membrane protein; mean ± S.E., n = 3 in duplicate
Description: as §2, §3

[10] = biological target: endogenous CGRP receptors expressed in the guinea pig atria; design: method as in Rovero et al., 1992; conditions: estimated from functional characterization, n = 3, ref Rovero et al., 1992, read-out: Reported Wild Type, equilibrium dissociation constant; cited from earlier work
[11] = biological target: CLR-RAMP1 heterodimer with the L34A CLR mutant (UniProt Q16602); test: radioligand binding; competition: increasing unlabeled peptide against specific [125I-Tyr]CGRP(8–37) binding on crude membranes of transiently transfected HEK293T-RAMP1 cells, same buffer as the saturation binding; Ki from IC50 by the method of Cheng and Prusoff
[12] = biological target: CLR-RAMP1 heterodimer with the L24A,L34A CLR double mutant (UniProt Q16602); test: as above
[13] = biological target: CLR-RAMP1 heterodimer with the L24A CLR mutant (UniProt Q16602); test: as above
[14] = biological target: CLR-RAMP1 heterodimer, wild type calcitonin-like receptor (CLR) with receptor-activity-modifying protein-1 (RAMP1) (UniProt Q16602); test: as above
[15] = biological target: T2, CLR-RAMP1 heterodimer with the L24A,L34A CLR double mutant (human | , UniProt Q16602 23-461; O60894 27-148, L24A | L34A); test: cell-based or functional assay
[16] = biological target: T3, CLR-RAMP1 heterodimer, wild type calcitonin-like receptor (CLR) with receptor-activity-modifying protein-1 … (human | , UniProt Q16602 23-461; O60894 27-148); test: cell-based or functional assay
[17] = biological target: T4, CLR-RAMP1 heterodimer with the L24A CLR mutant (human | , UniProt Q16602 23-461; O60894 27-148, L24A); test: cell-based or functional assay
[18] = biological target: T5, CLR-RAMP1 heterodimer with the L34A CLR mutant (human | , UniProt Q16602 23-461; O60894 27-148, L34A); test: cell-based or functional assay
[19] = biological target: T2, CLR-RAMP1 heterodimer with the …; test: radioligand binding; competition: increasing unlabeled peptide against specific [125I-Tyr]CGRP(8–37) binding on crude membranes of transiently transfected HEK293T-RAMP1 cells, same buffer as the saturation binding; Ki from IC50 by the method of Cheng and Prusoff
[20] = biological target: T3, CLR-RAMP1 heterodimer, wild type …; test: as above
[21] = biological target: T4, CLR-RAMP1 heterodimer with the L24A CLR …; test: as above
[22] = biological target: T5, CLR-RAMP1 heterodimer with the L34A CLR …; test: as above

- affinity for wild type CLR compared with CGRP [2]: significant affinity loss
- affinity at leucine mutants compared with wild type [3]: no differences
- maximal cAMP response ([4]; CGRP(1–36) compared with CGRP, CGRP(1–19) compared with CGRP(1–36) and CGRP): maximal response was similar
- fold loss of EC50 potency vs CGRP, wild type ([4]; cAMP EC50 of the fragment compared with CGRP): over 2,600 fold
- cAMP potency compared with CGRP, wild type ([4]; compared to CGRP): significantly less
Molecule: CC(C)C[C@H](NC(=O)CNC(=O)[C@H](C)NC(=O)[C@H](CC(C)C)NC(=O)[C@H](CCCNC(=N)N)NC(=O)[C@H](Cc1c[nH]cn1)NC(=O)[C@@H](NC(=O)[C@@H](NC(=O)[C@@H]1CSSC[C@H](NC(=O)[C@H](C)N)C(=O)N[C@@H](CC(=O)O)C(=O)N[C@@H]([C@@H](C)O)C(=O)N[C@@H](C)C(=O)N[C@@H]([C@@H](C)O)C(=O)N1)C(C)C)[C@@H](C)O)C(=O)N[C@@H](CC(C)C)C(=O)N[C@@H](CO)C(=O)N[C@@H](CCCNC(=N)N)C(=O)N[C@@H](CO)C(=O)NCC(=O)NCC(=O)N[C@H](C(=O)N[C@H](C(=O)N[C@@H](CCCCN)C(=O)N[C@@H](CC(N)=O)C(=O)N[C@@H](CC(N)=O)C(=O)N[C@@H](Cc1ccccc1)C(=O)N[C@H](C(=O)N1CCC[C@H]1C(=O)N[C@H](C(=O)N[C@@H](CC(N)=O)C(=O)N[C@H](C(=O)NCC(=O)N[C@@H](CO)C(=O)N[C@@H](CCCCN)C(=O)N[C@@H](C)C(N)=O)C(C)C)[C@@H](C)O)C(C)C)C(C)C)C(C)C [CGRP(1–36)] (H-ACDTATCVTHRLAGLLSRSGGVVKNNFVPTNVGSKA-NH2; disulfide 2-7 (inferred); N-terminus assumed)
- cAMP potency at leucine mutants compared with wild type [5]: no different; also recorded: no significant potency differences
- amylase release [6]: increase amylase release

- specific binding without CLR [7]: no specific binding
- fold decrease in affinity, mutant receptors vs wild type ([3]; L34A and L24A,L34A compared to wild type CLR): ~10 fold
- Bmax (maximal specific binding) [9]: 285 ± 206 fmols/mg
Molecule: CC(C)C[C@H](NC(=O)CNC(=O)[C@H](C)NC(=O)[C@H](CC(C)C)NC(=O)[C@H](CCCNC(=N)N)NC(=O)[C@H](Cc1c[nH]cn1)NC(=O)[C@@H](NC(=O)[C@@H](NC(=O)[C@@H](N)Cc1ccc(O)c(I)c1)C(C)C)[C@@H](C)O)C(=O)N[C@@H](CC(C)C)C(=O)N[C@@H](CO)C(=O)N[C@@H](CCCNC(=N)N)C(=O)N[C@@H](CO)C(=O)NCC(=O)NCC(=O)N[C@H](C(=O)N[C@H](C(=O)N[C@@H](CCCCN)C(=O)N[C@@H](CC(N)=O)C(=O)N[C@@H](CC(N)=O)C(=O)N[C@@H](Cc1ccccc1)C(=O)N[C@H](C(=O)N1CCC[C@H]1C(=O)N[C@H](C(=O)N[C@@H](CC(N)=O)C(=O)N[C@H](C(=O)NCC(=O)N[C@@H](CO)C(=O)N[C@@H](CCCCN)C(=O)N[C@@H](C)C(=O)N[C@@H](Cc1ccccc1)C(N)=O)C(C)C)[C@@H](C)O)C(C)C)C(C)C)C(C)C [[^125I-Tyr]CGRP(8–37)]
- Kd [8]: 0.0002 µM

The remaining lines, values behind:

Molecule: NCCCC[C@H](NC(=O)[C@@H](Cc1cc(Br)c(O)c(Br)c1)NC(=O)N1CCC(N2Cc3ccccc3NC2=O)CC1)C(=O)N1CCN(c2ccncc2)CC1 [BIBN4096BS]
- affinity for endogenous CGRP receptor [1]: high affinity
- displacement in competition binding (CGRP receptor): selectively be displaced in competition binding assays by CGRP and the receptor antagonist, CGRP(8–37)

Molecule: Ac-SGGVVKNNFVPTNVGSKAF-NH2 [AcCGRP(19–37)]
- Kd [10]: 0.933 µM
- affinity at leucine mutants compared with wild type [3]: significantly different (P < .05) from the wild type receptor

Molecule: AcCGRP(19–37) (peptide)
- Ki [11]: 4.6 µM
- Ki [12]: 2 µM
- Ki [13]: 3 µM
- Ki [14]: 0.227 µM

Molecule: ACDTATCVTHRLAGLLSRSGGVVKNNFVPTNVGSKA-NH2 (not fully specified (bridges); cysteine pairing not given here) [CGRP(1–36)]
- EC50 of cAMP generation in transiently transfected HEK293T-RAMP1 cells [15]: 4.2 µM
- EC50 of cAMP generation in transiently transfected HEK293T-RAMP1 cells [16]: 4.3 µM
- EC50 of cAMP generation in transiently transfected HEK293T-RAMP1 cells [17]: 3.4 µM
- EC50 of cAMP generation in transiently transfected HEK293T-RAMP1 cells [18]: 5.6 µM
- Ki [19]: > 10 µM
- Ki [20]: > 10 µM
- Ki [21]: > 10 µM
- Ki [22]: > 10 µM
